Experimental data as given in PubChem BioAssay (NCI).
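All cell lines were grown in 96-well plates and treated with compound for 48 hours. At the TGI there is no net growth.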

Legend:
Experiment in all cases: growth of human tumour cells (NCI), 48 h
SNB-75 CNS = system: SNB-75 CNS
ACHN renal = system: ACHN renal
OVCAR-8 ovarian = system: OVCAR-8 ovarian
U251 CNS = system: U251 CNS
HOP-62 NSCLC = system: HOP-62 NSCLC
MDA-N = system: MDA-N
HOP-92 NSCLC = system: HOP-92 NSCLC
SK-OV-3 ovarian = system: SK-OV-3 ovarian
A498 renal = system: A498 renal
SF-539 CNS = system: SF-539 CNS
SF-295 CNS = system: SF-295 CNS
TK-10 renal = system: TK-10 renal
NCI-H522 lung = system: NCI-H522 lung
HCC-2998 colon = system: HCC-2998 colon
HT29 colon = system: HT29 colon
CCRF-CEM leukemia = system: CCRF-CEM leukemia
HL-60(TB) leukemia = system: HL-60(TB) leukemia
OVCAR-5 ovarian = system: OVCAR-5 ovarian
DU-145 prostate = system: DU-145 prostate
UO-31 renal = system: UO-31 renal

Structure (SMILES) | TGI (SNB-75 CNS) [µM] | TGI (ACHN renal) [µM] | TGI (OVCAR-8 ovarian) [µM] | TGI (U251 CNS) [µM] | TGI (HOP-62 NSCLC) [µM] | TGI (MDA-N) [µM] | TGI (HOP-92 NSCLC) [µM] | TGI (SK-OV-3 ovarian) [µM] | TGI (A498 renal) [µM] | TGI (SF-539 CNS) [µM] | TGI (SF-295 CNS) [µM] | TGI (TK-10 renal) [µM] | TGI (NCI-H522 lung) [µM] | TGI (HCC-2998 colon) [µM] | TGI (HT29 colon) [µM] | TGI (CCRF-CEM leukemia) [µM] | TGI (HL-60(TB) leukemia) [µM] | TGI (OVCAR-5 ovarian) [µM] | TGI (DU-145 prostate) [µM] | TGI (UO-31 renal) [µM]
CCOC(=O)c1c(N2CCOCC2)ncn(-c2cccc(Cl)c2)c1=O | > 100 | > 100 | > 100 | > 100 | > 100 | > 100 | > 100 | > 100 | > 100 | > 100 | > 100 | > 100 | > 100 | > 100 | > 100 | > 100 | > 100 | > 100 | > 100 | 
Cc1cc(N(CCC#N)CCC#N)ccc1/C=C(\NC(=O)/C=C/c1ccccc1)C(=O)Nc1ccc(Cl)cc1 | > 100 | > 100 | > 100 | > 43.9 | > 100 | > 100 | > 100 | > 100 | > 100 | > 100 | > 100 | > 100 | > 100 | > 58.7 | > 100 | > 100 | > 100 | > 100 | > 100 | > 100
COc1ccc(-c2c(-c3ccccc3)c(C)nc3[nH]c(=S)[nH]c(=S)c23)cc1OC | > 100 | > 100 | > 100 | > 100 | 89.6 | > 100 | > 100 | > 100 | > 100 | 50.8 | > 100 | > 100 | 85.8 | > 100 | > 100 | 72.5 | > 100 | > 100 | > 100 | 68.4
COC(=O)[C@@H](NC(=O)[C@H](N)Cc1ccc(N(CCCl)CCCl)cc1)C(C)C | 66.6 | 51.8 | 27.8 | > 100 | > 100 | > 68 | 5.72 | > 100 | 48.5 | 67.6 | > 100 | 56.7 | 33.1 | 26.5 | > 100 | > 29.6 | > 51.8 | > 100 | 59.1 | 33
Nc1nc(Cl)c(N)c(NCC2(CO)CCC(CCc3ccccc3)C2)n1 (centres undefined) | 63.9 | > 68.9 | 38.1 | 29 | 36.7 | 33.7 | 49.2 | 63.8 | 49.5 | 33.7 | 29.8 | > 70.7 | 26.3 | 31.9 | 29.2 | 48.8 | 31.3 | 63.5 | 55.1 | 41.7
